Assay results taken from PMC3998376 (Journal of chromatography. A, 2014).
One block for each compound: values may come before it.

What was measured:
nuclear BCRP = target: T1, nuclear BCRP (Homo sapiens, UniProt Q9UNQ0); test: Screening of BCRP ligands, single frontal displacement of etoposide on NMAC; conditions: NMAC(LN229) column, verapamil in mobile phase, etoposide as marker ligand
T1 sequence (Q9UNQ0 1-655): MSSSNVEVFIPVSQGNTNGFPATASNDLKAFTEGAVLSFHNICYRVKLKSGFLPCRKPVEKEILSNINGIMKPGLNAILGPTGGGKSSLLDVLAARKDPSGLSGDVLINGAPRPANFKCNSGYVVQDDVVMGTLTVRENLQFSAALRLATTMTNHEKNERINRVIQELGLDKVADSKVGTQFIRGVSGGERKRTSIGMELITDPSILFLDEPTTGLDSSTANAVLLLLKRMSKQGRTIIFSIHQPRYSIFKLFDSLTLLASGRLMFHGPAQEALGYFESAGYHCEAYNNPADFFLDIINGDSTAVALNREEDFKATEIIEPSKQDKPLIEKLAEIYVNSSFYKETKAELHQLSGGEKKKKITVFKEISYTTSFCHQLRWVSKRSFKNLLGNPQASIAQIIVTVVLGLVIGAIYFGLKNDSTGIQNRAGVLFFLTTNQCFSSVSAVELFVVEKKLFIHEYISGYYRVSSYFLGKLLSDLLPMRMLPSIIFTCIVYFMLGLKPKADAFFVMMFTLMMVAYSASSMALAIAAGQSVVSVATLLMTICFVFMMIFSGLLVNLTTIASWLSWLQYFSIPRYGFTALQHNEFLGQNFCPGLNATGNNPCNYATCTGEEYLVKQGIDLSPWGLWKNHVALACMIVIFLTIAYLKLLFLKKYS

[1] = test system: Pgp, MRP1 and BCRP transporters (LN-229 cellular membranes, open tubular); test: Frontal affinity chromatography on CMAC; format: binding, human; conditions: read-out: Binding affinity (Kd); CMAC(LN-229)-OT column, ammonium acetate 10 mM pH 7.4, 0.05 mL/min
[2] = test system: Pgp, MRP1 and BCRP transporters (LN-229 nuclear membranes, open tubular); test: Frontal affinity chromatography on NMAC; format: binding, human; conditions: read-out: Binding affinity (Kd); NMAC(LN-229)-OT column, ammonium acetate 10 mM pH 7.4, 0.05 mL/min
MRP1 = MRP1 (Homo sapiens, UniProt P33527); test: Selective Kd determination on NMAC; format: binding
Pgp, MRP1 and BCRP [3] = test: Frontal affinity chromatography on CMAC; format: binding, human; conditions: human, pH 7.4
[4] = test system: Pgp, MRP1 and BCRP co-immobilized; test: in vitro; conditions: human, pH 7.4, Binding affinity (Kd), NMAC(LN-229)-IAM column, all transporters, ammonium acetate 10 mM pH 7.4, 0.4 mL/min
BCRP = target: T2, BCRP (Homo sapiens, UniProt Q9UNQ0); test: Selective Kd determination on NMAC; format: binding
T2 sequence (Q9UNQ0 1-655): T1 sequence (Q9UNQ0 1-655)

Pgp, MRP1 and BCRP [5] = test: Frontal affinity chromatography on NMAC; format: binding, human; conditions: human, pH 7.4

Sequence of MRP1 (P33527 whole entry): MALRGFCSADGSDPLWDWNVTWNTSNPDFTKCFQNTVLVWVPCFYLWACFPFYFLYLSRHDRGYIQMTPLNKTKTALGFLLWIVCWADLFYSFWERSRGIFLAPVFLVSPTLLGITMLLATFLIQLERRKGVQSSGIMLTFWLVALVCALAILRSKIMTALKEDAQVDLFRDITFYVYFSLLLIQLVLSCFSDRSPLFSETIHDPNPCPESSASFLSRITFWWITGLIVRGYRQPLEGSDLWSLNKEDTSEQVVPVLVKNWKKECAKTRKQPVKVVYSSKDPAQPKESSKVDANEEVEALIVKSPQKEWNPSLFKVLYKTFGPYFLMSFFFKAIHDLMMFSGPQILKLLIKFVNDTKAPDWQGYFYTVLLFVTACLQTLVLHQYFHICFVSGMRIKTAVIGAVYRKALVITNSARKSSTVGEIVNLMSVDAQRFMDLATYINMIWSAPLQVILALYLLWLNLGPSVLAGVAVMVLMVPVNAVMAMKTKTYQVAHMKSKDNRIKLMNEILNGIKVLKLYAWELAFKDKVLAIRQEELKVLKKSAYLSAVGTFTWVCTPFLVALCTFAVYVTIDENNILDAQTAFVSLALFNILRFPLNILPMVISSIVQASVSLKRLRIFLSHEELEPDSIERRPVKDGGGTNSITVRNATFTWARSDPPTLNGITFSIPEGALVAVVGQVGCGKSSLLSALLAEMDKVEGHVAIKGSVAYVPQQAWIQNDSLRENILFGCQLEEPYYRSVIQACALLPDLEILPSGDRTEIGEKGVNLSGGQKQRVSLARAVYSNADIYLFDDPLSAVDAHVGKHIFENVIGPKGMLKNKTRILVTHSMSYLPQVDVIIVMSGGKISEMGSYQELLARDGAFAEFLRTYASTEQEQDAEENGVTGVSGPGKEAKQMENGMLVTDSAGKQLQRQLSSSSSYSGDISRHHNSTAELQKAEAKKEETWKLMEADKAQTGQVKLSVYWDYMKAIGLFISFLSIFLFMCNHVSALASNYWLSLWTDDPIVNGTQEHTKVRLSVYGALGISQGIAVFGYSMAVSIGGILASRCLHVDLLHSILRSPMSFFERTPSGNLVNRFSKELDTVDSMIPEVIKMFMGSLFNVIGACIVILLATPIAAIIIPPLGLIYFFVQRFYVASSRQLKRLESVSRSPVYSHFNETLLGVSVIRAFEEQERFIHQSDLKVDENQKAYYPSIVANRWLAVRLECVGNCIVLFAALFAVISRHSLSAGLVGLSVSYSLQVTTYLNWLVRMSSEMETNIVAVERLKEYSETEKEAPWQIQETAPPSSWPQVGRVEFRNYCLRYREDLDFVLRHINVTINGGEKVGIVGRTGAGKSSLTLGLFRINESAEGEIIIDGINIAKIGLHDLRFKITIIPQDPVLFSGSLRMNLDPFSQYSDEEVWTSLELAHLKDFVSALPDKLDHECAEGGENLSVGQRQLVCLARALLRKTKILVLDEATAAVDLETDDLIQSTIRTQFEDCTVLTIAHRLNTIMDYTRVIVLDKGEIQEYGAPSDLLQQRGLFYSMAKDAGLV

- Change in retention of etoposide (nuclear BCRP): −5%
Compound: Cc1cn([C@H]2C[C@H](N=[N+]=[N-])[C@@H](CO)O2)c(=O)[nH]c1=O [AZT, zidovudine]

- Kd [1]: 690 ± 170 nM
- Kd [2]: 1750 ± 360 nM
Compound: COc1ccc(-c2coc3cc(O)cc(O)c3c2=O)cc1 [biochanin A]

Compound: COc1cc([C@@H]2c3cc4c(cc3[C@@H](O[C@@H]3O[C@@H]5CO[C@@H](C)O[C@H]5[C@H](O)[C@H]3O)[C@H]3COC(=O)[C@H]23)OCO4)cc(OC)c1O [etoposide]
- Kd (MRP1): 4.39 ± 1.93 µM
- Kd (Pgp, MRP1 and BCRP [3]): 2250 ± 490 nM
- Kd [4]: 3.75 ± 0.97 µM
- Kd (BCRP): 1410 ± 540 nM
- Reduction of breakthrough volume on addition of 2 μM verapamil (BCRP; 0.75 μM etoposide, NMAC(LN-229)-IAM): ~ 10%
- Reduction of breakthrough volume on addition of 2 μM verapamil (BCRP; 5 μM etoposide, NMAC(LN-229)-IAM): ~ 15%
- Breakthrough volume with 2 μM verapamil in mobile phase (BCRP; 5 μM etoposide, NMAC(LN-229)-IAM, 2 μM verapamil): 21.01 min
- Kd (Pgp, MRP1 and BCRP [5]): 1260 ± 360 nM
